Measurements as given in US20240100170A1, “CYCLIC-AMP RESPONSE ELEMENT BINDING PROTEIN (CBP) AND/OR ADENOVIRAL E1A BINDING PROTEIN OF 300 KDA (P300) DEGRADATION COMPOUNDS AND METHODS OF USE” (CULLGEN (SHANGHAI), INC., priority 2020, published 2024).
Like-named read-outs stand apart in the source and are kept apart here.

Columns and labels:
[1] = tested on: LNCaP prostate cancer cell; assay: LNCaP cell viability (CellTiter-Glo); type: cell-based; settings: Homo sapiens, 72 h, LNCaP cell viability, 3 days, CellTiter-Glo
How it was run: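 LNCaP cells (5000/well, RPMI 1640 + 10% FBS, 37 °C) treated with compounds in 12-point 3-fold serial dilution for three days. Viability read by CellTiter-Glo luminescence, normalized to untreated cells; IC50 from least-squares nonlinear regression.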

P300 = P300 (Homo sapiens, UniProt Q09472); assay: percentage of inhibition (degradation) of p300 at 10 nM, Tables 2-4; type: cell-based; design: LNCaP or 22RV1 cells that express CBP/P300 proteins were treated with GNE-781 or the bivalent compounds; endogenous in cells; host or cells: LNCaP or 22RV1 (not given); settings: for inhibition at 0.01 µM: read-out: Degradation (10 nM)
Method: Cultured cells or tissue chunks were washed with cold PBS once and lysed in cold RIPA buffer supplemented with protease inhibitors and phosphatase inhibitors (Beyotime Biotechnology). The solutions were then incubated at 4° C. for 30 minutes with gentle agitation to fully lyse cells. Cell lysates were centrifuged at 13,000 rpm for 10 minutes at 4° C. and pellets were discarded. Total protein concentrations in the lysates were determined by BCA assays (Beyotime Biotechnology). Cell lysates were mixed with Laemmli loading buffer to 1 X and heated at 99° C. for 5 min. Proteins were resolved on SDS-PAGE and visualized by chemiluminescence. Images were taken by a ChemiDoc MP Imaging system (Bio-Rad). Protein bands were quantitated using the accompanied software provided by Bio-Rad.

Sequence of P300 (Q09472 whole entry): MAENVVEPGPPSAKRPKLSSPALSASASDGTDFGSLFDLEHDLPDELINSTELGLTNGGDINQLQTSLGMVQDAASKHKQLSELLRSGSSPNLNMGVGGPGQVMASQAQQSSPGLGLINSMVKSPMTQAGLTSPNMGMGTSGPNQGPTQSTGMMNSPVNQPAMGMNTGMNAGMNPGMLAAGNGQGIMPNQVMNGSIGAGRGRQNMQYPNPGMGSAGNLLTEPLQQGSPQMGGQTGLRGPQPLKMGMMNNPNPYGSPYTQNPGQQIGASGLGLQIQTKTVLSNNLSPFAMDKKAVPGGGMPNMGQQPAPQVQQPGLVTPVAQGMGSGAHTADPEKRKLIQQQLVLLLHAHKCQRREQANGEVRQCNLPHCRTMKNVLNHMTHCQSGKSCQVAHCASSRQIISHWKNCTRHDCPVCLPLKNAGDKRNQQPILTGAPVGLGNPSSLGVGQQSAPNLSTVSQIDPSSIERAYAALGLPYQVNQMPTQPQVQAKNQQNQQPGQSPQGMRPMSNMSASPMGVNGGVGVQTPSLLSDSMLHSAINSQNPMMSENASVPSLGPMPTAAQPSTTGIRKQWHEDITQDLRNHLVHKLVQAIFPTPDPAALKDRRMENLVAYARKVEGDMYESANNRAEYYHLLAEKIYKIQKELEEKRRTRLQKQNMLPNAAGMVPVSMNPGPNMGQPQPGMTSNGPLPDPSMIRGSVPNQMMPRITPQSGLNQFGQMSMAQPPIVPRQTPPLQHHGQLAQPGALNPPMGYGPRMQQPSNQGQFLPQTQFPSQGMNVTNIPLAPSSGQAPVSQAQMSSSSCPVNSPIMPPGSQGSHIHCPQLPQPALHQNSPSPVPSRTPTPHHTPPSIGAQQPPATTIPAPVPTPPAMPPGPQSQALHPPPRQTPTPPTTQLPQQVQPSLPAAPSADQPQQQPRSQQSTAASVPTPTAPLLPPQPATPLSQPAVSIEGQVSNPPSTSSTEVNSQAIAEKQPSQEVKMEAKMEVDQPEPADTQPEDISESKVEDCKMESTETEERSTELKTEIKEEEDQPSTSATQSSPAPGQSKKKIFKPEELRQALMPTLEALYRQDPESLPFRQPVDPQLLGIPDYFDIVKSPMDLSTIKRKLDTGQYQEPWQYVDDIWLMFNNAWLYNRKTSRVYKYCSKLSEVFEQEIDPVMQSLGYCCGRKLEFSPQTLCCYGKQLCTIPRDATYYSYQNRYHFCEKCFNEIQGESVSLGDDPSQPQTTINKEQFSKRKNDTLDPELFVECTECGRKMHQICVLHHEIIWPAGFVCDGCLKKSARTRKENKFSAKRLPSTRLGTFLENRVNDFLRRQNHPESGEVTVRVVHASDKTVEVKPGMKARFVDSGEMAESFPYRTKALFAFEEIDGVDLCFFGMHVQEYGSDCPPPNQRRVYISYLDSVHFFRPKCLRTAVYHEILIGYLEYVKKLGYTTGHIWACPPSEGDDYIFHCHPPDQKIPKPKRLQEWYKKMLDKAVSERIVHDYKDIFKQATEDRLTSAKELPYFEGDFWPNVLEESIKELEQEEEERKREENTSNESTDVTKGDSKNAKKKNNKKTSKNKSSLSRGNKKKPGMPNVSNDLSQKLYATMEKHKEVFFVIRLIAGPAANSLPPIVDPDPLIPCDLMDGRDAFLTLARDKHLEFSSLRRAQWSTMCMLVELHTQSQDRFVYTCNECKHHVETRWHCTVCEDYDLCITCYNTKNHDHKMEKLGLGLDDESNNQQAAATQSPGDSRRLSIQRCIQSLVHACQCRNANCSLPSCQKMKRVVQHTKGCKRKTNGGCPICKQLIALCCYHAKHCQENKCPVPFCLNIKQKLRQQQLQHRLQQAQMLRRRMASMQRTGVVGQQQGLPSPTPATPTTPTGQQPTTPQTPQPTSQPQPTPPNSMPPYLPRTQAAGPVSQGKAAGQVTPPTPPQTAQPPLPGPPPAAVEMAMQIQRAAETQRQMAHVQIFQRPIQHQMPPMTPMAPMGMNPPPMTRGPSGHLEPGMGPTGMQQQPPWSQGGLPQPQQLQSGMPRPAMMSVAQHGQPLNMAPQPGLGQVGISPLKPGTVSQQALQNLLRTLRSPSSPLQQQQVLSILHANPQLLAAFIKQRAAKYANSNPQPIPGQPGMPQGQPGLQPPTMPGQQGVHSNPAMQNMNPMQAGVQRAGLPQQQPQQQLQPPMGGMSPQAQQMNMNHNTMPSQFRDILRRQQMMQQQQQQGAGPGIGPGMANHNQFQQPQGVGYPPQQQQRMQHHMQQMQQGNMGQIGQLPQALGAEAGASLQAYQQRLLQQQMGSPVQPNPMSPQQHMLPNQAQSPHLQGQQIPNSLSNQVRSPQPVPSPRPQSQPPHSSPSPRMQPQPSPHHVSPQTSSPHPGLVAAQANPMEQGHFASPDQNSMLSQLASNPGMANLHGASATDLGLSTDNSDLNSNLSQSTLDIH

SMILES | IC50 ([1]; Table 4) [nM] | inhibition at 0.01 µM (P300; p300, 10 nM, Table 4) [%] | other results
CC(=O)N1CCc2c(c(N3CCCc4cc(-c5cnn(C)c5)c(C(F)F)cc43)nn2C2CCN(Cc3cccc(COc4cccc5c4CN(C4CCC(=O)NC4=O)C5=O)c3)CC2)C1 (stereo not drawn) [P-202, 3-(4-((3-((4-(5-acetyl-3-(7-(difluoromethyl)-6-(1-methyl-1H-pyrazol-4-yl)-3,4-dihydroquinolin-1(2H)-yl)-4,5,6,7-tetrahydro-1H-pyrazolo[4,3-c]pyridin-1-yl)piperidin-1-yl)methyl)benzyl)oxy)-1-oxoisoindolin-2-yl)piperidine-2,6-dione] | 3.1 | 50 to 80 | –
CC(=O)N1CCc2c(c(N3CCCc4cc(-c5cnn(C)c5)c(C(F)F)cc43)nn2C2CCN(Cc3ccc(CNc4cccc5c4CN(C4CCC(=O)NC4=O)C5=O)cc3)CC2)C1 (stereo not drawn) [P-200] | 7.9 | 50 to 80 | –
CC(=O)N1CCc2c(c(N3CCCc4cc(-c5cnn(C)c5)c(C(F)F)cc43)nn2C2CCN(CCN3CCC(CNc4cccc5c4C(=O)N(C4CCC(=O)NC4=O)C5=O)CC3)CC2)C1 (stereo not drawn) [P-143, 4-(((1-(2-(4-(5-acetyl-3-(7-(difluoromethyl)-6-(1-methyl-1H-pyrazol-4-yl)-3,4-dihydroquinolin-1(2H)-yl)-4,5,6,7-tetrahydro-1H-pyrazolo[4,3-c]pyridin-1-yl)piperidin-1-yl)ethyl)piperidin-4-yl)methyl)amino)-2-(2,6-dioxopiperidin-3-yl)isoindoline-1,3-dione] | – | – | IC50 ([1]; Table 3): 1.5 nM; Degradation (10 nM) (P300; p300, 10 nM, Table 3): A (A: Degradation ≥ 80%)
CC(=O)N1CCc2c(c(N3CCCc4cc(-c5cnn(C)c5)c(C(F)F)cc43)nn2C2CCN(C(=O)CCN3CCC(CCc4ccc5c(c4)n(C)c(=O)n5C4CCC(=O)NC4=O)CC3)CC2)C1 (stereo not drawn) [P-221, 3-(5-(2-(1-(3-(4-(5-acetyl-3-(7-(difluoromethyl)-6-(1-methyl-1H-pyrazol-4-yl)-3,4-dihydroquinolin-1(2H)-yl)-4,5,6,7-tetrahydro-1H-pyrazolo[4,3-c]pyridin-1-yl)piperidin-1-yl)-3-oxopropyl)piperidin-4-yl)ethyl)-3-methyl-2-oxo-2,3-dihydro-1H-benzo[d]imidazol-1-yl)piperidine-2,6-dione] | 2.5 | > 80 | –
CC(=O)N1CCc2c(c(N3CCCc4cc(-c5cnn(C)c5)c(C(F)F)cc43)nn2C2CCN(CCC3CCN(c4cccc5c4C(=O)N(C4CCC(=O)NC4=O)C5=O)CC3)CC2)C1 (stereo not drawn) [P-192, 4-(4-(2-(4-(5-acetyl-3-(7-(difluoromethyl)-6-(1-methyl-1H-pyrazol-4-yl)-3,4-dihydroquinolin-1(2H)-yl)-4,5,6,7-tetrahydro-1H-pyrazolo[4,3-c]pyridin-1-yl)piperidin-1-yl)ethyl)piperidin-1-yl)-2-(2,6-dioxopiperidin-3-yl)isoindoline-1,3-dione] | 10.2 | 50 to 80 | –
CC(=O)N1CCc2c(c(N3CCCc4cc(-c5cnn(C)c5)c(C(F)F)cc43)nn2C2CCN(CCN3CCC(CCc4cccc5c4n(C)c(=O)n5C4CCC(=O)NC4=O)CC3)CC2)C1 (stereo not drawn) [P-252, 3-(4-(2-(1-(2-(4-(5-acetyl-3-(7-(difluoromethyl)-6-(1-methyl-1H-pyrazol-4-yl)-3,4-dihydroquinolin-1(2H)-yl)-4,5,6,7-tetrahydro-1H-pyrazolo[4,3-c]pyridin-1-yl)piperidin-1-yl)ethyl)piperidin-4-yl)ethyl)-3-methyl-2-oxo-2,3-dihydro-1H-benzo[d]imidazol-1-yl)piperidine-2,6-dione] | 0.1 | – | inhibition at 0.01 µM (P300): > 80%
CC(=O)N1CCc2c(c(N3CCCc4cc(-c5cnn(C)c5)c(C(F)F)cc43)nn2C2CCN(C(=O)CCCN3CCC(C#Cc4cccc5c4ccn5C4CCC(=O)NC4=O)CC3)CC2)C1 (stereo not drawn) [P-223, 3-(4-((1-(4-(4-(5-Acetyl-3-(7-(difluoromethyl)-6-(1-methyl-1H-pyrazol-4-yl)-3,4-dihydroquinolin-1(2H)-yl)-4,5,6,7-tetrahydro-1H-pyrazolo[4,3-c]pyridin-1-yl)piperidin-1-yl)-4-oxobutyl)piperidin-4-yl)ethynyl)-1H-indol-1-yl)piperidine-2,6-dione] | 43.7 | 50 to 80 | –
CNC(=O)N1CCc2c(c(N3CCCc4cc(-c5cnn(CC(=O)NCCOCCC(=O)N[C@H](C(=O)N6C[C@H](O)C[C@H]6C(=O)NCc6ccc(-c7scnc7C)cc6)C(C)(C)C)c5)c(C(F)F)cc43)nn2C2CCOCC2)C1 [P-074, 3-(7-(difluoromethyl)-6-(1-(2-((2-(3-(((S)-1-((2S,4R)-4-hydroxy-2-((4-(4-methylthiazol-5-yl)benzyl)carbamoyl)pyrrolidin-1-yl)-3,3-dimethyl-1-oxobutan-2-yl)amino)-3-oxopropoxy)ethyl)amino)-2-oxoethyl)-1H-pyrazol-4-yl)-3,4-dihydroquinolin-1(2H)-yl)-N-methyl-1-(tetrahydro-2H-pyran-4-yl)-1,4,6,7-tetrahydro-5H-pyrazolo[4,3-c]pyridine-5-carboxamide] | – | – | IC50 ([1]; Table 3): > 10000 nM; inhibition at 0.01 µM (P300; p300, 10 nM, Table 3): < 20%

Further lines, with some results ahead:

IC50 ([1]; Table 4) [nM] | inhibition at 0.01 µM (P300; p300, 10 nM, Table 4) [%] | SMILES | other results
0.1 | > 80 | CC(=O)N1CCc2c(c(N3CCCc4cc(-c5cnn(C)c5)c(C(F)F)cc43)nn2C2CCN(CCCC3CCN(c4cccc5c4C(=O)N(C4CCC(=O)NC4=O)C5=O)CC3)CC2)C1 (stereo not drawn) [P-249, 4-(4-(3-(4-(5-acetyl-3-(7-(difluoromethyl)-6-(1-methyl-1H-pyrazol-4-yl)-3,4-dihydroquinolin-1(2H)-yl)-4,5,6,7-tetrahydro-1H-pyrazolo[4,3-c]pyridin-1-yl)piperidin-1-yl)propyl)piperidin-1-yl)-2-(2,6-dioxopiperidin-3-yl)isoindoline-1,3-dione] | –
0.2 | > 80 | CC(=O)N1CCc2c(c(N3CCCc4cc(-c5cnn(C)c5)c(C(F)F)cc43)nn2C2CCN(CCCN3CCC(C#Cc4ccc5c(c4)n(C)c(=O)n5C4CCC(=O)NC4=O)CC3)CC2)C1 (stereo not drawn) [P-243, 3-(5-((1-(3-(4-(5-acetyl-3-(7-(difluoromethyl)-6-(1-methyl-1H-pyrazol-4-yl)-3,4-dihydroquinolin-1(2H)-yl)-4,5,6,7-tetrahydro-1H-pyrazolo[4,3-c]pyridin-1-yl)piperidin-1-yl)propyl)piperidin-4-yl)ethynyl)-3-methyl-2-oxo-2,3-dihydro-1H-benzo[d]imidazol-1-yl)piperidine-2,6-dione] | –
17.1 | > 80 | CC(=O)N1CCc2c(c(N3CCCc4cc(-c5cnn(C)c5)c(C(F)F)cc43)nn2C2CCN(C(=O)CCCN3CCC(CCc4cccc5c4n(C)c(=O)n5C4CCC(=O)NC4=O)CC3)CC2)C1 (stereo not drawn) [P-230, 3-(4-(2-(1-(4-(4-(5-Acetyl-3-(7-(difluoromethyl)-6-(1-methyl-1H-pyrazol-4-yl)-3,4-dihydroquinolin-1(2H)-yl)-4,5,6,7-tetrahydro-1H-pyrazolo[4,3-c]pyridin-1-yl)piperidin-1-yl)-4-oxobutyl)piperidin-4-yl)ethyl)-3-methyl-2-oxo-2,3-dihydro-1H-benzo[d]imidazol-1-yl)piperidine-2,6-dione] | –
1.3 | > 80 | CC(=O)N1CCc2c(c(N3CCCc4cc(-c5cnn(C)c5)c(C(F)F)cc43)nn2C2CCN(C(=O)CC3CCN(c4ccc(C(=O)NC5CCC(=O)NC5=O)c5ncccc45)CC3)CC2)C1 (stereo not drawn) [P-256, 5-(4-(2-(4-(5-acetyl-3-(7-(difluoromethyl)-6-(1-methyl-1H-pyrazol-4-yl)-3,4-dihydroquinolin-1(2H)-yl)-4,5,6,7-tetrahydro-1H-pyrazolo[4,3-c]pyridin-1-yl)piperidin-1-yl)-2-oxoethyl)piperidin-1-yl)-N-(2,6-dioxopiperidin-3-yl)quinoline-8-carboxamide] | –
